The values that follow come from patent US8426569B2, “DNA capable of being amplified by PCR with high selectivity and high efficiency” (Riken, priority 2008, dated 2013).

The target in test [1] is Klenow fragment of DNA polymerase I (KF exo-) (Escherichia coli, UniProt P00582, D355A/E357A).
Test [2] deals with T1, DeepVent DNA polymerase (Pyrococcus sp., UniProt Q51334, DEL493-1029). The class given is biochemical.
In test [3] the target is T1, DeepVent DNA polymerase. The class given is biochemical. This is another data set of the same source.

The structures appear in SMILES notation.

T1 sequence (Q51334 with tags, fused parts or gaps DEL493-1029): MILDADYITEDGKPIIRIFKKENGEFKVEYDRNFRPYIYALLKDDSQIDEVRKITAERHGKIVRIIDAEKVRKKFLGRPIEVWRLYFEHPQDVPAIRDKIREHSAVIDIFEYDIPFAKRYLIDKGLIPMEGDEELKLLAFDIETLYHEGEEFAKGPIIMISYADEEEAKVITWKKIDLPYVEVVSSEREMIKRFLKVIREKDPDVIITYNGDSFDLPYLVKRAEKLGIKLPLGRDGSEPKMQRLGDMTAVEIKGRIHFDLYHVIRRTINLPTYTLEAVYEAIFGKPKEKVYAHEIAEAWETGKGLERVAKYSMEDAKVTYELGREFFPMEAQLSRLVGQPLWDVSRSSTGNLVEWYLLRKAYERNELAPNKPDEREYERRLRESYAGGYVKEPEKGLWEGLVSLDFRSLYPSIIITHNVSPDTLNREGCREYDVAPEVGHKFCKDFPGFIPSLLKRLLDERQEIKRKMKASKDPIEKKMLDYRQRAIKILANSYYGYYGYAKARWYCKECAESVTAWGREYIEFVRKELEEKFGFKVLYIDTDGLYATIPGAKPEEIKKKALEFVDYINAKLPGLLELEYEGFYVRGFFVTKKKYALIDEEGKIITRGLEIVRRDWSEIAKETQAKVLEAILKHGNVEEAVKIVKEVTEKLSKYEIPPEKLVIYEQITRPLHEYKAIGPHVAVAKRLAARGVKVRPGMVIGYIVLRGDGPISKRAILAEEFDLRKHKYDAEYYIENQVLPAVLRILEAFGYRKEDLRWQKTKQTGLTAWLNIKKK
Chain of Klenow fragment of DNA polymerase I (KF exo-) (P00582 324-928 D355A/E357A limits assumed): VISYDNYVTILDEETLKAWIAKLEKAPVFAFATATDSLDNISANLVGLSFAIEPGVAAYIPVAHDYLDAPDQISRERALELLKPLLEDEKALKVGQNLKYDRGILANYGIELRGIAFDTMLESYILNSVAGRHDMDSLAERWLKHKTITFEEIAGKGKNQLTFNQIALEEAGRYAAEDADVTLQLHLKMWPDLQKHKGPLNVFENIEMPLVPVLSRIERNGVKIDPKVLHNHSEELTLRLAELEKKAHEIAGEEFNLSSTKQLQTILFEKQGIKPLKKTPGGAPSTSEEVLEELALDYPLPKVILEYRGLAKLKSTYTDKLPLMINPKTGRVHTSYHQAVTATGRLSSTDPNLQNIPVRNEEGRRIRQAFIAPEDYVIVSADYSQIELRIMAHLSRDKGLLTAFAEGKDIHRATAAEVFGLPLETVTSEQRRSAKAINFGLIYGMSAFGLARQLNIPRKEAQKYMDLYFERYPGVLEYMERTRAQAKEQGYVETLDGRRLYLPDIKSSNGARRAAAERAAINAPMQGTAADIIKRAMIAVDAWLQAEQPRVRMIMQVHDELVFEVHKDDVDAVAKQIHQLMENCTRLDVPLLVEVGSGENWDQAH

Consider `NCCCCCC(=O)NCC#Cc1cc([N+](=O)[O-])n([C@H]2C[C@H](O)[C@@H](COP(=O)(O)OP(=O)(O)OP(=O)(O)O)O2)c1` [NH2-hx-dPnTP, 1-(2-deoxy-β-D-ribofuranosyl)-4-[3-(6-amino-hexanamide)-1-propynyl]-2-nitropyrrole 5′-triphosphate], for which, in test [1], the “incorporation efficiency into Ds relative to that of the Pn substrate” value is “about twice” and the “incorporation efficiency into natural bases in the template strand” value is given as “lower than the incorporation efficiency into Ds”. On DeepVent DNA polymerase [2], the “amplification of the DNA fragment containing Ds” value is listed as “about 10^8 times” and the “conservation of the unnatural base Ds in DNA (sequencing analysis)” value is “almost completely conserved”. Also, at DeepVent DNA polymerase [3], the “conservation of both two sites of the unnatural base Ds in DNA (sequencing pattern analysis)” value is recorded as “almost completely conserved”.
